Assay results from patent publication US20150104415A1, “Treatments of Hepatitis C virus infection” (DEBIOPHARM INTERNATIONAL SA, priority 2011, published 2015).

Tested on: HCV GT1
Assay: Randomized, double-blind, placebo-controlled phase II study of DEB025 plus SOC (peg-IFNα2a plus RBV); virologic response by HCV RNA
Assay type: in vivo, patients
Method: This is an international, multicentre, randomized, double-blind, placebo-controlled, 4-arm, parallel-group phase II study comparing therapy with three doses of DEB025 (600 mg QD, 800 mg QD and 400 mg BID) plus SOC (peg-IFNα2a once weekly plus RBV BID) versus triple therapy with placebo matching DEB025 plus SOC in chronic HCV GT1 patients who were non-responders to prior SOC treatment, or who have relapsed after SOC treatment.
Approximately 344 patients will be randomized into one of 4 treatment arms (A, B, C (C1/C2) and D) in a 1:1:1:1 ratio. C1 and C2 patients will be randomized in a 1:1 ratio within arm C.
The randomization will be stratified by response status to previous treatment (non-responders/relapsers), BMI (<25 kg/m2 or ≧25 kg/m2) and IL28B polymorphism (CC or CT/TT) at screening.
The ratio non-responders and relapsers should be kept at 50% (172 patients) of the study population. An international, multicentre, randomized, double-blind, placebo-controlled, 4-arm, parallel-group phase II study comparing triple therapy with three doses of alisporivir (400 mg, 600 mg or 800 mg)+standard of care (SOC) versus triple therapy with placebo matching alisporivir plus SOC in […] chronic HCV GT1 patients who were non-responders to prior SOC treatment, or relapsers after SOC treatment is provided.
Patients are randomized into one of 4 treatment arms as described below in a 1:1:1:1 ratio. The randomization will be stratified by response status to previous treatment (non-responders/relapsers), BMI (<25 kg/m2 or ≧25 kg/m2) and IL28B polymorphism (CC or CT/TT) at screening. The ratio non-responders and relapsers should be kept at 50% (172 patients) of the study population.
• Alisporivir/Placebo 3 capsules of 200 mg (600 mg) alisporivir 2×/day (BID) orally for 1 week (loading dose) followed by 3 capsules of 200 mg (600 mg) alisporivir once per day (QD) plus 1 capsule of placebo QD for 47 weeks. Only in week 17 (dummy loading) patients receive 3 capsules of 200 mg (600 mg) alisporivir in the morning and 3 capsules of placebo in the evening. • Peg-IFNα2a 180 μg subcutaneously (s.c.) once weekly for 48 weeks • Ribavirin 1000 mg/day (<75 kg) or 1200 mg/day (≧75 kg) orally in two divided doses for 48 weeks
• alisporivir/Placebo 3 capsules of 200 mg (600 mg) alisporivir 2×/day orally for 1 week (loading dose) followed by 4 capsules alisporivir (800 mg) QD for 47 weeks. Only in week 17 (dummy loading) patients receive 3 capsules of 200 mg (600 mg) alisporivir in the morning and 1 capsule of 200 mg alisporivir plus 2 capsules of placebo in the evening. • Peg-IFNα2a 180 μg subcutaneously (s.c.) once weekly for 48 weeks • Ribavirin 1000 mg/day (<75 kg) or 1200 mg/day (≧75 kg) orally in two divided doses for 48 weeks Treatment C1 (will change to active treatment if cEVR not reached=arm C1A) • Placebo 3 capsules of placebo BID orally for 1 week (loading dose) followed by 4 capsules placebo QD for 47 weeks. […]
• Placebo alisporivir 1 capsule of placebo QD (in the morning) orally for 48 weeks 2 capsules of 200 mg (400 mg) alisporivir 2×/day orally for 48 weeks
• 180 μg s.c. once weekly for 48 weeks • Ribavirin 1000 mg/day (<75 kg) or 1200 mg/day (≧75 kg) orally in two divided doses for 48 weeks Treatment C2 (will change to active treatment if cEVR not reached=arm C2A) • DEB025 placebo 3 capsules of placebo orally in the morning and 2 capsules of placebo in the evening for 48 weeks. • Peg-IFNα2a 180 μg s.c. once weekly for 48 weeks • Ribavirin 1000 mg/day (<75 kg) or 1200 mg/day (≧75 kg) orally in two divided doses for 48 weeks
• Placebo 3 capsules of placebo orally as morning dose and 2 capsules of placebo as evening dose for 16 weeks. […]

[1] = Arm A, DEB 600 QD plus peg-IFNα2a/RBV, N = 81
[2] = Arm B, DEB 800 QD plus peg-IFNα2a/RBV, N = 84
[3] = Arm D, DEB 400 BID plus peg-IFNα2a/RBV, N = 78
[4] = DEB 400 BID arm plus SOC, Week 12

## C/C=C/C[C@@H](C)[C@@H](O)[C@H]1C(=O)N[C@@H](CC)C(=O)N(C)[C@H](C)C(=O)N(CC)[C@@H](C(C)C)C(=O)N[C@@H](C(C)C)C(=O)N(C)[C@@H](CC(C)C)C(=O)N[C@@H](C)C(=O)N[C@H](C)C(=O)N(C)[C@@H](CC(C)C)C(=O)N(C)[C@@H](CC(C)C)C(=O)N(C)[C@@H](C(C)C)C(=O)N1C [DEB025, alisporivir]
Arm A, DEB 600 QD (600 mg BID 1 week loading) plus peg-IFNα2a/RBV, N = 81, GT1 relapsers/non-responders
  RVR (rapid virologic response): patients with HCV RNA < LOQ (25 IU/mL) after 4 weeks of treatment: 19 (23.5) n (%)
[1]
  EVR: HCV RNA decrease >= 2 log10 from baseline or < LOQ (25 IU/mL) after 12 weeks: 64 (79.0) n (%)
  cEVR (complete early virologic response, primary endpoint): HCV RNA < LOQ (25 IU/mL) after 12 weeks: 36 (44.4) n (%)
  pEVR (partial early virologic response): HCV RNA decrease >= 2 log10 from baseline and > LOQ (25 IU/mL) after 12 weeks: 28 (34.6) n (%)
Arm B, DEB 800 QD (600 mg BID 1 week loading) plus peg-IFNα2a/RBV, N = 84
  RVR (rapid virologic response): patients with HCV RNA < LOQ (25 IU/mL) after 4 weeks of treatment: 18 (21.4) n (%)
[2]
  EVR: HCV RNA decrease >= 2 log10 from baseline or < LOQ (25 IU/mL) after 12 weeks: 72 (85.7) n (%)
  cEVR (complete early virologic response, primary endpoint): HCV RNA < LOQ (25 IU/mL) after 12 weeks: 48 (57.1) n (%)
  pEVR (partial early virologic response): HCV RNA decrease >= 2 log10 from baseline and > LOQ (25 IU/mL) after 12 weeks: 24 (28.6) n (%)
[3]
  EVR: HCV RNA decrease >= 2 log10 from baseline or < LOQ (25 IU/mL) after 12 weeks: 63 (80.8) n (%)
  RVR (rapid virologic response): patients with HCV RNA < LOQ (25 IU/mL) after 4 weeks of treatment: 29 (37.2) n (%)
  cEVR (complete early virologic response, primary endpoint): HCV RNA < LOQ (25 IU/mL) after 12 weeks: 55 (70.5) n (%)
  pEVR (partial early virologic response): HCV RNA decrease >= 2 log10 from baseline and > LOQ (25 IU/mL) after 12 weeks: 8 (10.3) n (%)
DEB 400 BID arm plus SOC, Week 4
  proportion achieving RVR: 37.2%
[4]
  proportion achieving EVR: 80.8%
  proportion achieving cEVR: 70.5%
Week 4, all the DEB025 treatment arms (600 QD, 800 QD, 400 BID) plus SOC
  patients achieved RVR: > 20%
Week 12, all the DEB025 treatment arms (600 QD, 800 QD, 400 BID) plus SOC
  patients achieved EVR: ≥ 79%
